Consider three molecules from patent US20150361087A1, “ANTIVIRAL COMPOUNDS” (Gilead Sciences, Inc., priority 2014, published 2015).

Each structure is given as a SMILES string. Read-outs that look alike come from different tables or passages of the source.

The test system of data set [1] is L31V/Y93H in genotype 1b NS5A (1b Pi-Rluc replicon). As to the kind of experiment: Replicon assay against resistance mutant 1b L31V/Y93H. In kind it is cell-based, HCV. To be noted: transiently transfected Huh-7-derived cured-51 cells. Here is the method:
(§1) Evaluation of cell-based anti-HCV activity: Antiviral potency (EC50) was determined using a Renilla luciferase (RLuc)-based HCV replicon reporter assay. To perform the assay for genotype 1 and 2a JFH-1, stable HCV 1a RLuc replicon cells (harboring a dicistronic genotype 1a H77 replicon that encodes a RLuc reporter), stable HCV 1b RLuc replicon cells (harboring a dicistronic genotype 1b Conl replicon that encodes a RLuc reporter), or stable HCV 2a JFH-1 Rluc replicon cells (harboring a dicistronic genotype 2a JFH-1 replicon that encodes a RLuc reporter; with L31 present in NS5A) were dispensed into 384-well plates for EC50 assays. […] 72 hours later, cells were lysed and Renilla luciferase activity quantified as recommended by the manufacturer (Promega-Madison, Wis.). […]
(§2) To determine the antiviral potency (EC50) against resistance mutants, resistance mutations, including Q30R, Q30E, Y93H, and Y93N in genotype 1a NS5A, and L31V/Y93H in genotype 1b NS5A were introduced individually into either 1a Pi-Rluc or 1b Pi-Rluc replicons by site directed mutagenesis. Replicon RNA of each resistant mutant was transiently transfected into Huh-7-derived cured-51 cells and antiviral potency was determined on these transfected cells as described above.
In general terms: Replicon systems follow genome replication, usually without infectious particles.

On the set-up of data set [2]: species or system Sprague-Dawley (SD) rats. To be noted: in vivo. As for the experimental part: IV and PO Single Dose Pharmacokinetic Studies in SD Rats: The pharmacokinetics of selected compounds was characterized in male Sprague-Dawley (SD) rats (250-300 g). In this study, two groups of naïve purebred SD rats (N=3 per group, fasted over night) received the selected compound either as an intravenous (IV) infusion (1 mg/kg over 30 minutes) via the jugular vein or by oral gavage (2 mg/kg). The intravenous (IV) dosing vehicle was 5% ethanol, 35% polyethylene glycol 400 (PEG 400) and 60% water pH 2.0. The oral dosing vehicle was 5% ethanol, 55% PEG 400 and 40% citrate buffer pH 2.2.
Serial blood samples (approximately 0.3 mL each) were collected from jugular vein or other suitable vein at specified time points. […]
A bioanalytical method utilizing high performance liquid chromatography coupled to tandem mass spectrometry (LC/MS/MS) was developed for analysis of the selected compound in rat plasma. Detection was performed using selected reaction monitoring (SRM); Ions representing the precursor (M+H) ^+ species was selected in quadrupole 1 (Q1) and collided with argon gas in the collision cell (Q2) to generate specific product ion, which was subsequently monitored by quadrupole 3 (Q3). Standard curve and quality control samples were prepared in male rat plasma and processed in the same way as the test samples to generate quantitative data. […]

Data set [3] relates to 3a Y93H. As to the kind of experiment: Replicon assay against resistance mutant 3a Y93H. In kind it is cell-based, HCV.
For data set [4], the system named is Q30E in genotype 1a NS5A (1a Pi-Rluc replicon). Nature of the data set: Replicon assay against resistance mutant 1a Q30E. To be noted: transiently transfected Huh-7-derived cured-51 cells. The class given is cell-based, HCV. As for the experimental part: as §1, §2
In data set [5] the test system is Y93N in genotype 1a NS5A (1a Pi-Rluc replicon). Nature of the data set: Replicon assay against resistance mutant 1a Y93N. In kind it is cell-based, HCV. As for the experimental part:
as §1, with “assays. To perform the assay for genotype 2a (with M31 present in NS5A) or 2b, NS5A chimeric genotype 2a JFH-1 replicons that encodes a RLuc-Neo reporter and either genotype 2a J6 strain NS5A gene or genotype 2b MD2b-1 strain NS5A gene (both with M31 present) respectively, were either transiently transfected (t) into Huh-Lunet cells or were established as stably replicating replicon cells (s) is provided. Either cells were dispensed into 384-well plates for EC50 assays. To perform the assay for genotype 3 and 4, NS5A chimeric genotype 1b Conl replicons that encodes a Pi-RLuc reporter and either genotype 3a S52 strain NS5A gene or genotype 4a ED43 strain NS5A gene respectively, were transiently transfected (t) into Huh-Lunet cells, which were subsequently dispensed into 384-well plates.” for “assays.”
as §2

For data set [6], the target named is NS5A chimeric genotype 1b Conl replicon with genotype 3a S52 strain NS5A gene. As to the kind of experiment: Renilla luciferase HCV replicon reporter assay, genotype 3a. In kind it is cell-based. Here is the method:
(§3) Evaluation of cell-based anti-HCV activity: Antiviral potency (EC50) was determined using a Renilla luciferase (RLuc)-based HCV replicon reporter assay. To perform the assay for genotype 1 and 2a JFH-1, stable HCV 1a RLuc replicon cells (harboring a dicistronic genotype 1a H77 replicon that encodes a RLuc reporter), stable HCV 1b RLuc replicon cells (harboring a dicistronic genotype 1b Conl replicon that encodes a RLuc reporter), or stable HCV 2a JFH-1 Rluc replicon cells (harboring a dicistronic genotype 2a JFH-1 replicon that encodes a RLuc reporter; with L31 present in NS5A) were dispensed into 384-well plates for EC50 assays. To perform the assay for genotype 2a (with M31 present in NS5A) or 2b, NS5A chimeric genotype 2a JFH-1 replicons that encodes a RLuc-Neo reporter and either genotype 2a J6 strain NS5A gene or genotype 2b MD2b-1 strain NS5A gene (both with M31 present) respectively, were either transiently transfected (t) into Huh-Lunet cells or were established as stably replicating replicon cells (s) is provided. Either cells were dispensed into 384-well plates for EC50 assays. To perform the assay for genotype 3 and 4, NS5A chimeric genotype 1b Conl replicons that encodes a Pi-RLuc reporter and either genotype 3a S52 strain NS5A gene or genotype 4a ED43 strain NS5A gene respectively, were transiently transfected (t) into Huh-Lunet cells, which were subsequently dispensed into 384-well plates. Compounds were dissolved in DMSO at a concentration of 10 mM and diluted in DMSO either manually or using an automated pipeting instrument. Serially 3-fold diluted compounds were either manually mixed with cell culture media and added to the seeded cells or directly added to the cells using an automated instrument. DMSO was used as a negative (solvent; no inhibition) control, and the protease inhibitor ITMN-191 was included at a concentration >100×EC50 as a positive control. 72 hours later, cells were lysed and Renilla luciferase activity quantified as recommended by the manufacturer (Promega-Madison, Wis.). Non-linear regression was performed to calculate EC50 values.

For data set [7], the target named is NS5A chimeric genotype 2a JFH-1 replicon with genotype 2a J6 strain NS5A gene (M31). Nature of the data set: Renilla luciferase HCV replicon reporter assay, genotype 2a J6. The class given is cell-based. To be noted: transiently transfected (t) into Huh-Lunet cells, 72 hours. As for the experimental part:
as §1, with “assays. To perform the assay for genotype 2a (with M31 present in NS5A) or 2b, NS5A chimeric genotype 2a JFH-1 replicons that encodes a RLuc-Neo reporter and either genotype 2a J6 strain NS5A gene or genotype 2b MD2b-1 strain NS5A gene (both with M31 present) respectively, were either transiently transfected (t) into Huh-Lunet cells or were established as stably replicating replicon cells (s) is provided. Either cells were dispensed into 384-well plates for EC50 assays.” for “assays.”

In data set [8] the test system is HCV 1a RLuc replicon cells (genotype 1a H77 replicon). As to the kind of experiment: Renilla luciferase HCV replicon reporter assay, genotype 1a. To be noted: stable replicon cells, 72 hours, RLuc readout. In kind it is cell-based. As for the experimental part: as §3
For data set [9], the system named is Y93H in genotype 1a NS5A (1a Pi-Rluc replicon). Nature of the data set: Replicon assay against resistance mutant 1a Y93H. The class given is cell-based, HCV. As for the experimental part:
as §3, with “Compounds were dissolved in DMSO at a concentration of 10 mM and diluted in DMSO either manually or using an automated pipeting instrument. Serially 3-fold diluted compounds were either manually mixed with cell culture media and added to the seeded cells or directly added to the cells using an automated instrument. DMSO was used as a negative (solvent; no inhibition) control, and the protease inhibitor ITMN-191 was included at a concentration >100×EC50 as a positive control.” left out, “Non-linear regression was performed to calculate EC50 values.” left out
as §2

The target in data set [10] is NS5A chimeric genotype 2a JFH-1 replicon with genotype 2b MD2b-1 strain NS5A gene (M31). Nature of the data set: Renilla luciferase HCV replicon reporter assay, genotype 2b. In kind it is cell-based. As for the experimental part:
as §3

Data set [11] has as its system HCV 1b RLuc replicon cells (genotype 1b Conl replicon). Nature of the data set: Renilla luciferase HCV replicon reporter assay, genotype 1b. The class given is cell-based. To be noted: stable replicon cells, 72 hours, RLuc readout. Here is the method:
as §3

Data set [12] concerns HCV 2a JFH-1 Rluc replicon cells (L31 present in NS5A). As to the kind of experiment: Renilla luciferase HCV replicon reporter assay, genotype 2a JFH-1. The class given is cell-based. The note with it: stable replicon cells, 72 hours. Here is the method: as §3
In data set [13] the test system is NS5A chimeric genotype 1b Conl replicon with genotype 4a ED43 strain NS5A gene. As to the kind of experiment: Renilla luciferase HCV replicon reporter assay, genotype 4a. In kind it is cell-based. The note with it: Hepatitis C virus, 72 h, read-out: 4a (s) (nM). Here is the method:
as §1, with “assays. To perform the assay for genotype 2a (with M31 present in NS5A) or 2b, NS5A chimeric genotype 2a JFH-1 replicons that encodes a RLuc-Neo reporter and either genotype 2a J6 strain NS5A gene or genotype 2b MD2b-1 strain NS5A gene (both with M31 present) respectively, were either transiently transfected (t) into Huh-Lunet cells or were established as stably replicating replicon cells (s) is provided. Either cells were dispensed into 384-well plates for EC50 assays.” for “assays.”

The mark [14] stands for this setting: Hepatitis C virus, read-out: 3a Y93H (nM).
Where [15] appears, read: Hepatitis C virus, read-out: 1a Y93N (nM).
Setting [16] is: Hepatitis C virus, 72 h, read-out: 3a (nM).
Setting [17] is: Hepatitis C virus, read-out: 1a Y93H (nM).
Where [18] appears, read: Hepatitis C virus, 72 h, read-out: 2b (s) (nM).

On to `COC(=O)N[C@H](C(=O)N1[C@@H](C)CC[C@H]1c1ncc(-c2cc3c4c(c2)OCc2cc(-c5cnc([C@@H]6CC[C@H](C)N6C(=O)[C@@H](NC(=O)OC)C6C[C@@H](C)O[C@H](C)C6)[nH]5)cc(c2-4)OC3)[nH]1)C1C[C@@H](C)O[C@H](C)C1` (stereo partly drawn) [Compound 14, dimethyl (R,R,1S,1′S)-2,2′-((2S,2′S,5S,5′S)-5,5′-(5,5′-(5,10-dihydrochromeno[5,4,3-cde]chromene-2,7-diyl)bis(1H-imidazole-5,2-diyl))bis(2-methylpyrrolidine-5,1-diyl))bis(1-((2R,6R)-2,6-dimethyltetrahydro-2H-pyran-4-yl)-2-oxoethane-2,1-diyl)dicarbamate], for which the EC50 in [1] was found to be 75 pM; in [3] (resistance mutant replicon, read-out: 3a Y93H) it was 0.157 nM; in data set [4] it was 110 pM; in [5] (transiently transfected Huh-7-derived cured-51 cells, read-out: 1a Y93N) it was 0.229 nM; in data set [6] (transiently transfected into Huh-Lunet cells, 72 hours, read-out: 3a), 0.04 nM; in data set [7] it was 14 pM. Also, the EC50 in data set [8] was 49 pM; in data set [9] (transiently transfected Huh-7-derived cured-51 cells, read-out: 1a Y93H), 0.063 nM; in data set [10] (transiently transfected (t) into Huh-Lunet cells, 72 hours, read-out: 2b (t)), 0.038 nM; in data set [11], 54 pM; in data set [12] it was 11 pM. Moreover, the “Rat % F” value in [2] stood at 15%.

On to `COC(=O)N[C@H](C(=O)N1CCC[C@H]1c1ncc(-c2cc3c4c(c2)OCc2cc(-c5cnc([C@@H]6CCCN6C(=O)[C@@H](NC(=O)OC)C6C[C@@H](C)O[C@H](C)C6)[nH]5)cc(c2-4)OC3)[nH]1)C1C[C@@H](C)O[C@H](C)C1` (stereo partly drawn) [Compound 15, dimethyl ((1S,1′S)-((2S,2′S)-((5,10-dihydrochromeno [5,4,3-cde]chromene-2,7-diyl)bis(1H-imidazole-5,2-diyl))bis(pyrrolidine-2,1-diyl))bis(1-((2R,6R)-2,6-dimethyltetrahydro-2H-pyran-4-yl)-2-oxoethane-2,1-diyl))dicarbamate], for which the EC50 in data set [3] (setting [14]) was determined as 0.361 nM; in data set [5] (setting [15]), 0.87 nM; in data set [6] (setting [16]) it was 0.199 nM; in data set [8] (Hepatitis C virus) it was 180 pM; in data set [9] (setting [17]), 0.237 nM; in data set [10] (setting [18]), 0.143 nM. The EC50 in data set [13] was 0.07 nM; in data set [11] (Hepatitis C virus), 195 pM; in data set [12] (Hepatitis C virus) it was 24 pM.

As to `COC(=O)N[C@H](C(=O)N1[C@@H](C)CC[C@H]1c1ncc(-c2cc3c4c(c2)OCc2cc(-c5cnc([C@@H]6CC[C@H](C)N6C(=O)[C@@H](NC(=O)OC)[C@H]6C[C@@H](C)O[C@@H](C)C6)[nH]5)cc(c2-4)OC3)[nH]1)C1C[C@@H](C)O[C@@H](C)C1` (stereo partly drawn) [Compound 16, dimethyl (r,S,R,1S,1′S)-2,2′-((2S,2′S,5S,5′S)-5,5′-(5,5′-(5,10-dihydrochromeno[5,4,3-cde]chromene-2,7-diyl)bis(1H-imidazole-5,2-diyl))bis(2-methylpyrrolidine-5,1-diyl))bis(1-((2R,4r,6S)-2,6-dimethyltetrahydro-2H-pyran-4-yl)-2-oxoethane-2,1-diyl)dicarbamate], the EC50 stood at 0.145 nM in data set [3] (setting [14]); 0.685 nM in data set [5] (setting [15]); 0.051 nM in [6] (setting [16]); 43 pM in data set [8] (Hepatitis C virus); 0.356 nM in data set [9] (setting [17]); 0.054 nM in data set [10] (setting [18]). Further, the EC50 turned out to be 0.025 nM in data set [13], 37 pM in data set [11] (Hepatitis C virus) and 13 pM in data set [12] (Hepatitis C virus).
